Results reported in paper PMC5925831, “Enhancement of the catalytic activity of Isopentenyl diphosphate isomerase (IDI) from Saccharomyces cerevisiae through random and site-directed mutagenesis” (Microbial Cell Factories, 2018).

Assays:
[1] = biological target: T1, IDI (isopentenyl diphosphate isomerase from Saccharomyces cerevisiae) (Saccharomyces cerevisiae, UniProt P15496, Y195F/W256C, form not given); conditions: 50 mM MOPS, 20 mM MgCl2, 5% glycerol, pH 7.5, 30 °C (activity assay); substrate range printed as 1–1000 mmol/L
T1 construct: gene IDI1
T1 sequence (P15496 2-288 Y195F/W256C, form open): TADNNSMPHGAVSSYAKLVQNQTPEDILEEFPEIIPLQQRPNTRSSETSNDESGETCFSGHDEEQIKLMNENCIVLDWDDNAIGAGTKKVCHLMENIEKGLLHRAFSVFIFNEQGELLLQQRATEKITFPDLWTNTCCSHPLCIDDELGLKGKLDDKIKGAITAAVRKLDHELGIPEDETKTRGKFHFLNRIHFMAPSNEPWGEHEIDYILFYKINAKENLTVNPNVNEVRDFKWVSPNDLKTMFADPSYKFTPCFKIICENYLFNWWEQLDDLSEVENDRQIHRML
From the text: (§1) GC of isoprene released from DMAPP by acid and heat; double-reciprocal plot on IDI (isopentenyl diphosphate isomerase from Saccharomyces cerevisiae)

[2] = biological target: T2, IDI (isopentenyl diphosphate isomerase from Saccharomyces cerevisiae) (Saccharomyces cerevisiae, UniProt P15496); conditions: 50 mM MOPS, 20 mM MgCl2, 5% glycerol, pH 7.5, 30 °C (activity assay); substrate range printed as 1–1000 mmol/L
T2 construct: gene IDI1
T2 sequence (P15496 2-288): as the sequence (P15496 2-288 Y195F/W256C, form open) above, with F194Y, C255W counted along it
From the text: as §1

For C=C(C)CCO[P@@](=O)(O)OP(=O)(O)O [isopentenylpyrophosphate], which Km [1] is on record?
Its Km is 37.6 ± 0.17 µM.

And the Km [2]?
Its Km is 41.5 ± 0.39 µM.
